Experimental findings from patent US12157730B2, “Heteroaryl derivative, method for producing same, and pharmaceutical composition comprising same as effective component” (VORONOI INC., priority 2019, dated 2024) are described below.

This assay deals with T1, Ba/F3 cell EGFR Exon20 ins NPH (Homo sapiens, UniProt P00533, INS773NPH).
T1 construct: expressed in transfected cells; host or cells: Ba/F3
The experiment in a line: Ba/F3 cell proliferation suppression, EGFR Exon20 ins NPH. Format: cell-based. To be noted: GI50 class; Ba/F3 cell line with NPH inserted at Exon20 of EGFR; 72 hours. A digest of the protocol:
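Cells (3000–5000/well) plated 24 h before compound, 12-point 3-fold dilutions at 0.3 nM to 50 um final; Ba/F3 lines grown with 5 ng/ml IL-3. Viability by CellTiter-Glo luminescence after 72 h, growth ratio vs control, GI50 from curves; triplicate.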
On to `C=CC(=O)Nc1cc(Nc2cc(N3OCC[C@@H]3c3ccc4ccccc4c3)ncn2)c(OC)cc1N1CCC(N2CCN(C3CC3)CC2)CC1` [Example 151, N-(2-(4-(4-cyclopropylpiperazine-1-yl)piperidine-1-yl)-4-methoxy-5-((6-((R)-3-(naphthalene-2-yl)isoxazolidine-2-yl)pyrimidine-4-yl)amino)phenyl)acrylamide], for which the “Ba/F3 (NPH) Activity” value is given as “B (50 nM ≤ GI50 < 500 nM)”. The entry for `C=CC(=O)Nc1cc(Nc2cc(N3OCC[C@@H]3Cc3cccc(Cl)c3F)ncn2)c(OC)cc1N(C)CCN(C)C` [compound 1016, N-(5-((6-((S)-3-(3-chloro-2-fluorobenzyl)isoxazolidine-2-yl)pyrimidine-4-yl)amino)-2-((2-(dimethylamino)ethyl)(methyl)amino)-4-methoxyphenyl) acrylamide] is “A (GI50 < 50 nM)”. Under `C=CC(=O)Nc1cc(Nc2cc(N3OCC[C@H]3c3c(F)cccc3F)ncn2)c(OC)cc1N1CCC(N2CCN(CC)CC2)CC1` [compound 312, N-(5-((6-((S)-3-(2,6-difluorophenyl)isoxazolidine-2-yl)pyrimidine-4-yl)amino)-2-(4-(4-ethylpiperazine-1-yl)piperidine-1-yl)-4-methoxyphenyl) acrylamide] stands “C (500 nM ≤ GI50 < 5000 nM)”. The entry for `C=CC(=O)Nc1cc(Nc2cc(N3OCC[C@@H]3c3cccc(Cl)c3Cl)ncn2)c(OC)cc1N1CCN(C(C)C)CC1` [compound 475, N-(5-((6-((R)-3-(2,3-dichlorophenyl)isoxazolidine-2-yl)pyrimidine-4-yl)amino)-2-(4-isopropylpiperazine-1-yl)-4-methoxyphenyl) acrylamide] is “A (GI50 < 50 nM)”; for `C=CC(=O)Nc1cc(Nc2cc(N3OCC[C@@H]3c3cccc(F)c3Cl)ncn2)c(OC)cc1N1CCC(N2CCN(C(C)=O)CC2)CC1` [compound 601, N-(2-(4-(4-acetylpiperazine-1-yl)piperidine-1-yl)-5-((6-((R)-3-(2-chloro-3-fluorophenyl)isoxazolidine-2-yl)pyrimidine-4-yl)amino)-4-methoxyphenyl) acrylamide] it is “A (GI50 < 50 nM)”; for `C=CC(=O)Nc1cc(Nc2cc(N3OCC[C@@H]3c3ccc(F)c(F)c3F)ncn2)c(OC)cc1N1CC[C@H](N2CCOCC2)C1` [compound 624, N-(4-methoxy-2-((S)-3-morpholinopyrolidine-1-yl)-5-((6-((R)-3-(2,3,4-trifluorophenyl)isoxazolidine-2-yl)pyrimidine-4-yl)amino)phenyl)acrylamide] it is “C (500 nM ≤ GI50 < 5000 nM)”.

For the molecule `C=CC(=O)Nc1cc(Nc2cc(N3OCC[C@@H]3c3cccc(C(F)(F)F)c3)ncn2)c(OC)cc1N1CCC(N(C)C)CC1` [compound 451, N-(2-(4-(dimethlamino)piperidine-1-yl)-4-methoxy-5-((6-((R)-3-(3-(trifluoromethyl)phenyl)isoxazolidine-2-yl)pyrimidine-4-yl)amino)phenyl) acrylamide], the “Ba/F3 (NPH) Activity” value was “A (GI50 < 50 nM)”. The entry for `C=CC(=O)Nc1cc(Nc2cc(N3OCC[C@@H]3Cc3ccccc3)ncn2)c(OC)cc1N1CCN(C(C)C)CC1` [compound 954, N-(5-((6-((S)-3-benzylisoxazolidine-2-yl)pyrimidine-4-yl)amino)-2-(4-isopropylpiperazine-1-yl)-4-methoxyphenyl) acrylamide] is “A (GI50 < 50 nM)”. Under `C=CC(=O)Nc1cc(Nc2cc(N3OCC[C@@H]3Cc3ccc(C(F)(F)F)cc3)ncn2)c(OC)cc1N1CCN(C2CC2)CC1` [compound 1049, N-(2-(4-cyclopropylpiperazine-1-yl)-4-methoxy-5-((6-((S)-3-(4-(trifluoromethyl)benzyl)isoxazolidine-2-yl)pyrimidine-4-yl)amino)phenyl) acrylamide] stands “C (500 nM ≤ GI50 < 5000 nM)”; under `C=CC(=O)Nc1cc(Nc2cc(N3OCC[C@@H]3c3cccc(OC)c3)ncn2)c(OC)cc1N1CCC(N2CCC(N(C)C)CC2)CC1` [compound 781, N-(2-(4-(dimethylamino)-[1,4'-bipiperidine]-1'-yl)-4-methoxy-5-((6-((R)-3-(3-methoxyphenyl)isoxazolidine-2-yl)pyrimidine-4-yl)amino)phenyl)acrylamide], “B (50 nM ≤ GI50 < 500 nM)”; under `C=CC(=O)Nc1cc(Nc2cc(N3OCC[C@@H]3Cc3cccc(Cl)c3Cl)ncn2)c(OC)cc1N1CCC(N2CCO[C@H](C)C2)CC1` [compound 1011, N-(5-((6-((S)-3-(2,3-dichlorobenzyl)isoxazolidine-2-yl)pyrimidine-4-yl)amino)-4-methoxy-2-(4-((R)-2-methylmorpholino)piperidine-1-yl)phenyl) acrylamide], “A (GI50 < 50 nM)”. `C=CC(=O)Nc1cc(Nc2cc(N3OCC[C@@H]3c3cccc(Cl)c3)ncn2)c(OC)cc1N1CCC(N2C[C@@H]3C[C@H]2CO3)CC1` [compound 462, N-(2-(4-((1S,4S)-2-oxa-5-azabicyclo [2.2.1]heptane-5-yl)piperidine-1-yl)-5-((6-((R)-3-(3-chlorophenyl)isoxazolidine-2-yl)pyrimidine-4-yl)amino)-4-methoxyphenyl) acrylamide]: the “Ba/F3 (NPH) Activity” value is on record as “A (GI50 < 50 nM)”. On to `C=CC(=O)Nc1cc(Nc2cc(N3OCC[C@@H]3c3cc(F)cc(F)c3)ncn2)c(O[C@H](C)C(F)(F)F)cc1N1CCC(N2CCN(C3CC3)CC2)CC1` [Example 119, N-(2-(4-(4-cyclopropylpiperazine-1-yl)piperidine-1-yl)-5-((6-((R)-3-(3,5-difluorophenyl)isoxazolidine-2-yl)pyrimidine-4-yl)amino)-4-(((R)-1,1,1-trifluoropropane-yl)oxy)phenyl)acrylamide], for which the “Ba/F3 (NPH) Activity” value is given as “A (GI50 < 50 nM)”. Under `C=CC(=O)Nc1cc(Nc2cc(N3OCC[C@@H]3c3ccc(F)c(Cl)c3)ncn2)c(OC)cc1N1CCC(N2C[C@@H](C)N(CC)[C@@H](C)C2)CC1` [compound 370, N-(5-((6-((R)-3-(3-chloro-4-fluorophenyl)isoxazolidine-2-yl)pyrimidine-4-yl)amino)-2-(4-((3S,5R)-4-ethyl-3,5-dimethylpiperazine-1-yl)piperidine-1-yl)-4-methoxyphenyl) acrylamide] stands “A (GI50 < 50 nM)”; under `C=CC(=O)Nc1cc(Nc2cc(N3OCC[C@@H]3c3ccc(F)cc3F)ncn2)c(OC)cc1N1CCN(C2CCN(C)CC2)CC1` [compound 345, N-(5-((6-((R)-3-(2,4-difluorophenyl)isoxazolidine-2-yl)pyrimidine-4-yl)amino)-4-methoxy-2-(4-(1-methylpiperidine-4-yl)piperazine-1-yl)phenyl)acrylamide], “A (GI50 < 50 nM)”; under `C=CC(=O)Nc1cc(Nc2cc(N3OCC[C@@H]3Cc3ccc(C(F)(F)F)cc3)ncn2)c(OC)cc1N1CCC(N2C[C@H]3C[C@@H]2CO3)CC1` [compound 1051, N-(2-(4-((1R,4R)-2-oxa-5-azabicyclo [2.2.1]heptane-5-yl)piperidine-1-yl)-4-methoxy-5-((6-((S)-3-(4-(trifluoromethyl)benzyl)isoxazolidine-2-yl)pyrimidine-4-yl)amino)phenyl)acrylamide], “A (GI50 < 50 nM)”. For the molecule `C=CC(=O)Nc1cc(Nc2cc(N3OCC[C@@H]3c3cccc(F)c3Cl)ncn2)c(OC)cc1N1CCC(N2C[C@H]3CCN(C)[C@H]3C2)CC1` [compound 447, N-(5-((6-((R)-3-(2-chloro-3-fluorophenyl)isoxazolidine-2-yl)pyrimidine-4-yl)amino)-4-methoxy-2-(4-((3aR,6aR)-1-methylhexahydropyrrolo [3,4-b]pyrrole-5(1H)-yl)piperidine-1-yl)phenyl)acrylamide], the “Ba/F3 (NPH) Activity” value was “A (GI50 < 50 nM)”.

For `C=CC(=O)Nc1cc(Nc2cc(N3OCC[C@@H]3Cc3ccccc3)ncn2)c(OC)cc1N1CCC(N2CCN(C3CC3)CC2)CC1` [compound 955, N-(5-((6-((S)-3-benzylisoxazolidine-2-yl)pyrimidine-4-yl)amino)-2-(4-(4-cyclopropylpiperazine-1-yl)piperidine-1-yl)-4-methoxyphenyl) acrylamide], the “Ba/F3 (NPH) Activity” value is reported as “A (GI50 < 50 nM)”.

As for `C=CC(=O)Nc1cc(Nc2cc(N3OCC[C@@H]3c3c(F)ccc(F)c3F)ncn2)c(OC)cc1N1CCC(N2CCN(C(C)C)CC2)CC1` [compound 643, N-(2-(4-(4-isopropylpiperazine-1-yl)piperidine-1-yl)-4-methoxy-5-((6-((R)-3-(2,3,6-trifluorophenyl)isoxazolidine-2-yl)pyrimidine-4-yl)amino)phenyl)acrylamide], the “Ba/F3 (NPH) Activity” value was “A (GI50 < 50 nM)”. The entry for `C=CC(=O)Nc1cc(Nc2cc(N3OCC[C@@H]3c3cc(F)cc(F)c3)ncn2)c(OC)cc1N1CCN(C2CC2)CC1` [compound 438, N-(2-(4-cyclopropylpiperazine-1-yl)-5-((6-((R)-3-(3,5-difluorophenyl)isoxazolidine-2-yl)pyrimidine-4-yl)amino)-4-methoxyphenyl) acrylamide] is “A (GI50 < 50 nM)”; for `C=CC(=O)Nc1cc(Nc2cc(N3OCC[C@@H]3c3ccc(F)c(Cl)c3F)ncn2)c(OC)cc1N1CCN(CC)CC1` [compound 600, N-(5-((6-((R)-3-(3-chloro-2,4-difluorophenyl)isoxazolidine-2-yl)pyrimidine-4-yl)amino)-2-(4-ethylpiperazine1-yl)-4-methoxyphenyl) acrylamide] it is “A (GI50 < 50 nM)”. The entry for `C=CC(=O)Nc1cc(Nc2cc(N3OCC[C@@H]3c3ccc(Cl)c(Cl)c3)ncn2)c(OC)cc1N1C[C@H]2C[C@@H]1CN2CC` [compound 676, N-(5-((6-((R)-3-(3,4-dichlorophenyl)isoxazolidine-2-yl)pyrimidine-4-yl)amino)-2-((1R,4R)-5-ethyl-2,5-diazabicyclo[2.2.1]heptane-2-yl)-4-methoxyphenyl) acrylamide] is “A (GI50 < 50 nM)”.
